Data published in paper PMC6640638 (Journal of the American Chemical Society, 2016).

Key:
Assay in all cases: adenylation: pyrophosphate exchange or coupled pyrophosphate release assay
Type in all cases: biochemical
Conditions in all cases: adenylation step; ATP
[1] = biological target: T1, tyrosyl-tRNA synthetase (TyrRS, class IC) (Escherichia coli, UniProt P0AGJ9)
T1 sequence (P0AGJ9 2-424): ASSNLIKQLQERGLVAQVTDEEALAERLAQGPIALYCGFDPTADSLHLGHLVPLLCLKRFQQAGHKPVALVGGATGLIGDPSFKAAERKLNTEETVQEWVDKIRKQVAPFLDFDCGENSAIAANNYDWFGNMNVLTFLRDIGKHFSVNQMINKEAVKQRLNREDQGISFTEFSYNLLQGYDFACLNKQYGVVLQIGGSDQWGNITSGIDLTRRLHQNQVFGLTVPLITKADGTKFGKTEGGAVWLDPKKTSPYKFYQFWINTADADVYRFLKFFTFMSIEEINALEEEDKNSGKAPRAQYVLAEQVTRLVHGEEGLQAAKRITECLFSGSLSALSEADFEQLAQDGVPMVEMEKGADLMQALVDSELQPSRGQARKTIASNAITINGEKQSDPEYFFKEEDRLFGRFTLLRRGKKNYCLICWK

[2] = biological target: phenylalanyl-tRNA synthetase (PheRS, class IIC) (Escherichia coli, UniProt P08312)
phenylalanyl-tRNA synthetase (PheRS, class IIC), sequence (P08312 whole entry): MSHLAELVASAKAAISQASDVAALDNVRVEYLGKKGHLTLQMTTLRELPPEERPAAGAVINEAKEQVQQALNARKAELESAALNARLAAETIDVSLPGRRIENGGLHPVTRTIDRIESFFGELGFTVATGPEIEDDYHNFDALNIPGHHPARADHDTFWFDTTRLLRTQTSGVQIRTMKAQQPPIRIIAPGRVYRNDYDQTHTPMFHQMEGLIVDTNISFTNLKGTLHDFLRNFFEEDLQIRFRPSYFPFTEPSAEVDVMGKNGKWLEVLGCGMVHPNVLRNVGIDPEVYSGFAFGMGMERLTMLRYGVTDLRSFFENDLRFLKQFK
phenylalanyl-tRNA synthetase (PheRS, class IIC), sequence (P07395 whole entry partner): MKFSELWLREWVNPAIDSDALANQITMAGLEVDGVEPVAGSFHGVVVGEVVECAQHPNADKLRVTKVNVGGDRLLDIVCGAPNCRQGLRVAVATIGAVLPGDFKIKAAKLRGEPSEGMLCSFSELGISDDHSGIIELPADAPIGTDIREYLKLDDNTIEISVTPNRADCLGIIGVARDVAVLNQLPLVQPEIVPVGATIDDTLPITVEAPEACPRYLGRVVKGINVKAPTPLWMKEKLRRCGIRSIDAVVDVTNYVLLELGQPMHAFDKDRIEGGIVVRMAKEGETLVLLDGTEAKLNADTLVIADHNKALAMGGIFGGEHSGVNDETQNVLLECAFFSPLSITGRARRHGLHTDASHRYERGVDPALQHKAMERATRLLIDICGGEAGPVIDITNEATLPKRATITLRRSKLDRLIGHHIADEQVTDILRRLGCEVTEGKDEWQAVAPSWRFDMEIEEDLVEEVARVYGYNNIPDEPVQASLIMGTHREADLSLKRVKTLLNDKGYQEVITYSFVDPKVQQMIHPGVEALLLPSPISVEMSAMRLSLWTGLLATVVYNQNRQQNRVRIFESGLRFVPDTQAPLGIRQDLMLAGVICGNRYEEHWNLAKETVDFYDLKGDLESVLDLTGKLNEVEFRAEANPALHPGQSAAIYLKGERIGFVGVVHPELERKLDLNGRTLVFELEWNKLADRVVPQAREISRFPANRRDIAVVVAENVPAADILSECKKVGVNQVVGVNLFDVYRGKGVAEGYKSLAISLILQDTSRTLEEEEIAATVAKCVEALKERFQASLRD

[3] = biological target: T2, glycyl-tRNA synthetase (GlyRS, class IIC) (Escherichia coli, UniProt P00960)
T2 sequence (P00960 1-303): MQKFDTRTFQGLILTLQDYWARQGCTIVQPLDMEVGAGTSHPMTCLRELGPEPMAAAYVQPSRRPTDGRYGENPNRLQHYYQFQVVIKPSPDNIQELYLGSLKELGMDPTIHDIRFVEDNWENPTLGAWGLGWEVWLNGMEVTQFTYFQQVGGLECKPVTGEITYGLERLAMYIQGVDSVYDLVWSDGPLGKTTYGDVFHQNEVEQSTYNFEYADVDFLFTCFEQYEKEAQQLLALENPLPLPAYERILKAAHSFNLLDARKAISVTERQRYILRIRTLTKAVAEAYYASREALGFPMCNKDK
T2 sequence (P00961 2-689 partner): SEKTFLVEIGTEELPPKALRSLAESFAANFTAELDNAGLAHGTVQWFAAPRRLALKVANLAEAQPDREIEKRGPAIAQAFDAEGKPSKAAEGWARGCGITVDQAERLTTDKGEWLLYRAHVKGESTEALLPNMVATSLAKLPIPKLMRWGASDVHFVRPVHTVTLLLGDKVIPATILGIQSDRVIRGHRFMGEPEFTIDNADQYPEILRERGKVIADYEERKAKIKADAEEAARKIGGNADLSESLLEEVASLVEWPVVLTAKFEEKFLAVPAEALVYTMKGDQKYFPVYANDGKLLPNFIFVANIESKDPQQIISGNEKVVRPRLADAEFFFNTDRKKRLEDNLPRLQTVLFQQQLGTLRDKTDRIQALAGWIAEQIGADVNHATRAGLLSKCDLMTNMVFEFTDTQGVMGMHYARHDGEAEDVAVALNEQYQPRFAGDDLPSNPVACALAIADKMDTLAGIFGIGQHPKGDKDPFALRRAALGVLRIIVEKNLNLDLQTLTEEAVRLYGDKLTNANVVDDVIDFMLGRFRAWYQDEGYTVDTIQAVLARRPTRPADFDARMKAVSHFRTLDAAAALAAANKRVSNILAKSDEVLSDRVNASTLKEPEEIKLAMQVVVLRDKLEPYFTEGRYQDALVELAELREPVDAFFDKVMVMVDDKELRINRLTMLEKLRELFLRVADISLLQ

Row | SMILES | KM [2] | KM [3] | further results
1 | N[C@@H](Cc1ccc(O)cc1)C(=O)O [α-Tyr] | – | – | KM [1]: GluRS and TyrRS (both class I) show the greatest selection against β^3-amino acid substrates
2 | N[C@@H](Cc1ccccc1)C(=O)O [α-Phe] | GlyRS and PheRS (class II) tolerate the expanded β^3-amino acid backbone | – | –
3 | NCC(=O)O [α-Gly] | – | GlyRS and PheRS (class II) tolerate the expanded β^3-amino acid backbone | –
4 | NC(CC(=O)O)Cc1ccccc1 (stereo not drawn) [β^3-Phe] | GlyRS and PheRS (class II) tolerate the expanded β^3-amino acid backbone | – | –
5 | NCCC(=O)O [β^3-Gly] | – | GlyRS and PheRS (class II) tolerate the expanded β^3-amino acid backbone | –
